Data from the NIST ThermoML archive (doi:10.1016/j.jct.2017.08.004).

Conditions: for molar entropy: 101.33 kPa

OC[C@@H](O)C(O)[C@H](O)CO [D-arabitol]
Conditions	molar entropy [J/K/mol]
1 K, Crystal, relaxation calorimetry	0.0005801
2 K, Crystal, relaxation calorimetry	0.002268
3 K, Crystal, relaxation calorimetry	0.006257
4 K, Crystal, relaxation calorimetry	0.01391
5 K, Crystal, relaxation calorimetry	0.02686
6 K, Crystal, relaxation calorimetry	0.04705
7 K, Crystal, relaxation calorimetry	0.07698
8 K, Crystal, relaxation calorimetry	0.1198
9 K, Crystal, relaxation calorimetry	0.179
10 K, Crystal, relaxation calorimetry	0.2576
15 K, Crystal, relaxation calorimetry	1.012
20 K, Crystal, relaxation calorimetry	2.431
25 K, Crystal, relaxation calorimetry	4.457
30 K, Crystal, relaxation calorimetry	6.97
35 K, Crystal, relaxation calorimetry	9.854
40 K, Crystal, relaxation calorimetry	13.02
45 K, Crystal, relaxation calorimetry	16.41
50 K, Crystal, relaxation calorimetry	19.95
55 K, Crystal, relaxation calorimetry	23.61
60 K, Crystal, relaxation calorimetry	27.36
65 K, Crystal, relaxation calorimetry	31.16
70 K, Crystal, relaxation calorimetry	35.01
75 K, Crystal, relaxation calorimetry	38.9
80 K, Crystal, relaxation calorimetry	42.79
85 K, Crystal, relaxation calorimetry	46.7
90 K, Crystal, relaxation calorimetry	50.61
95 K, Crystal, relaxation calorimetry	54.52
100 K, Crystal, relaxation calorimetry	58.42
110 K, Crystal, relaxation calorimetry	66.18
120 K, Crystal, relaxation calorimetry	73.87
130 K, Crystal, relaxation calorimetry	81.48
140 K, Crystal, relaxation calorimetry	89.01
150 K, Crystal, relaxation calorimetry	96.45
160 K, Crystal, relaxation calorimetry	103.81
170 K, Crystal, relaxation calorimetry	111.08
180 K, Crystal, relaxation calorimetry	118.28
190 K, Crystal, relaxation calorimetry	125.41
200 K, Crystal, relaxation calorimetry	132.48
210 K, Crystal, relaxation calorimetry	139.49
220 K, Crystal, relaxation calorimetry	146.44
230 K, Crystal, relaxation calorimetry	153.36
240 K, Crystal, relaxation calorimetry	160.23
250 K, Crystal, relaxation calorimetry	167.08
260 K, Crystal, relaxation calorimetry	173.89
270 K, Crystal, relaxation calorimetry	180.69
273.15 K, Crystal, relaxation calorimetry	182.82
280 K, Crystal, relaxation calorimetry	187.46
290 K, Crystal, relaxation calorimetry	194.23
298.15 K, Crystal, relaxation calorimetry	199.73
300 K, Crystal, relaxation calorimetry	200.98
305 K, Crystal, Small sample (50 mg) DSC	204.36
310 K, Crystal, Small sample (50 mg) DSC	207.75
315 K, Crystal, Small sample (50 mg) DSC	211.16
320 K, Crystal, Small sample (50 mg) DSC	214.58
325 K, Crystal, Small sample (50 mg) DSC	218.03
330 K, Crystal, Small sample (50 mg) DSC	221.5
335 K, Crystal, Small sample (50 mg) DSC	224.99
340 K, Crystal, Small sample (50 mg) DSC	228.51
345 K, Crystal, Small sample (50 mg) DSC	232.07
350 K, Crystal, Small sample (50 mg) DSC	235.68
355 K, Crystal, Small sample (50 mg) DSC	239.39
360 K, Crystal, Small sample (50 mg) DSC	243.37
365 K, Crystal, Small sample (50 mg) DSC	248.05
390 K, Liquid, Small sample (50 mg) DSC	369.2
395 K, Liquid, Small sample (50 mg) DSC	374.96
400 K, Liquid, Small sample (50 mg) DSC	380.58
405 K, Liquid, Small sample (50 mg) DSC	386.13
410 K, Liquid, Small sample (50 mg) DSC	391.63
415 K, Liquid, Small sample (50 mg) DSC	397.09
420 K, Liquid, Small sample (50 mg) DSC	402.53

Conditions	Normal melting temperature [°C]
Crystal, DTA	99.23
